Test results: ChEMBL document CHEMBL6115034, “Pseudonatural Flavonols as Novel Copper Ionophores for NAFLD Intervention via Synergistic Copper Delivery and Flavonoid Activity” (J Med Chem, 2025)
The source made the active and inactive calls. The calls are words filed in the database; no cut-off is given here.

Assays:
[1] = Stability of compound in PBS buffer in presence of cysteine by UV-Vis spectrophotometer analysis; type: physicochemical
[2] = Stability of the compound in cell culture medium containing 10% fetal bovine serum in presence of EDTA by UV-Vis spectrophotometer analysis; type: physicochemical, cell-free; conditions: cattle
[3] = Stability of the compound in cell culture medium containing 10% fetal bovine serum in presence of histidine by UV-Vis spectrophotometer analysis; type: physicochemical, cell-free; conditions: cattle
[4] = Photophysical property of the compound assessed as fluorescence quantum yield; type: physicochemical
[5] = system: HeLa; experiment: Induction of copper transporting activity in human HeLa cells assessed as increase in intracellular copper levels by measuring change in fluorescence intensity; type: functional, cell-based
[6] = system: HeLa; experiment: Induction of copper transporting activity in human HeLa cells assessed as increase in intracellular copper levels at 0.02 to 20 uM by ICP-MS analysis; type: functional, cell-based; conditions: dose 0.02-20 µM, time <= 24.0 hrs
[7] = system: HeLa; experiment: Induction of copper transporting activity in human HeLa cells assessed as increase in intracellular copper levels incubated upto 24 hrs by ICP-MS analysis; type: functional, cell-based; conditions: dose 0.02-20 µM
[8] = system: Hepatocyte; experiment: Cytotoxicity against mouse Hepatocyte assessed as cell viability at 0.1 to 5 uM measured at 24 hrs by MTT assay; type: toxicity, cell-based; conditions: hepatocytes, dose 0.1-5 µM
[9] = system: HepG2; experiment: Cytotoxicity against human HepG2 cells assessed as cell viability at 0.1 to 5 uM compound administrated as copper complex measured at 24 hrs by MTT assay; type: functional, cell-based; conditions: dose 0.1-5 µM
[10] = system: Hepatocyte; experiment: Cytotoxicity against mouse Hepatocyte assessed as cell viability at 0.1 to 5 uM compound administrated as copper complex measured at 24 hrs by MTT assay; type: toxicity, cell-based; conditions: hepatocytes, dose 0.1-5 µM
[11] = system: HepG2; experiment: Anti-NAFLD activity in palmitic acid human HepG2 NAFLD cell model assessed as decrease in lipid droplet level at 5 uM measured at 24 hrs by Oil Red O staining based assay relative to control; type: functional; set-up: scale not given: the % may be the effect or the level left
[12] = system: HepG2; experiment: Anti-NAFLD activity in palmitic acid human HepG2 NAFLD cell model assessed as effect on IL6 expression at 0.5 uM incubated for 24 hrs in presence of CuCl2 by mRNA sequencing analysis; type: functional, cell-based
[13] = system: HepG2; experiment: Anti-NAFLD activity in palmitic acid human HepG2 NAFLD cell model assessed as effect on IFIT3 expression at 0.5 uM incubated for 24 hrs in presence of CuCl2 by mRNA sequencing analysis; type: functional, cell-based
[14] = system: HepG2; experiment: Anti-NAFLD activity in palmitic acid human HepG2 NAFLD cell model assessed as effect on CYP4F11 expression at 0.5 uM incubated for 24 hrs in presence of CuCl2 by mRNA sequencing analysis; type: functional, cell-based
[15] = system: HepG2; experiment: Anti-NAFLD activity in palmitic acid human HepG2 NAFLD cell model assessed as effect on SLC48A1 expression at 0.5 uM incubated for 24 hrs in presence of CuCl2 by mRNA sequencing analysis; type: functional, cell-based
[16] = system: HepG2; experiment: Anti-NAFLD activity in palmitic acid human HepG2 NAFLD cell model assessed as downregulation of STEAP4 expression at 0.5 uM incubated for 24 hrs in presence of CuCl2 by mRNA sequencing analysis; type: functional, cell-based
[17] = system: HepG2; experiment: Anti-NAFLD activity in palmitic acid human HepG2 NAFLD cell model assessed as upregulation of CYP4F12 expression at 0.5 uM incubated for 24 hrs in presence of CuCl2 by mRNA sequencing analysis; type: functional, cell-based
[18] = system: HepG2; experiment: Anti-NAFLD activity in palmitic acid human HepG2 NAFLD cell model assessed as upregulation of CYP4F11 expression at 0.5 uM incubated for 24 hrs in presence of CuCl2 by mRNA sequencing analysis; type: functional, cell-based
[19] = system: HepG2; experiment: Anti-NAFLD activity in palmitic acid human HepG2 NAFLD cell model assessed as upregulation of SOD1 expression at 0.5 uM incubated for 24 hrs in presence of CuCl2 by mRNA sequencing analysis; type: functional, cell-based
[20] = system: HepG2; experiment: Anti-NAFLD activity in palmitic acid human HepG2 NAFLD cell model assessed as upregulation of TXN expression at 0.5 uM incubated for 24 hrs in presence of CuCl2 by mRNA sequencing analysis; type: functional, cell-based
[21] = system: HepG2; experiment: Anti-NAFLD activity in palmitic acid human HepG2 NAFLD cell model assessed as downregulation of IL6 expression at 0.5 uM incubated for 24 hrs in presence of CuCl2 by mRNA sequencing analysis; type: functional, cell-based
[22] = system: HepG2; experiment: Anti-NAFLD activity in palmitic acid human HepG2 NAFLD cell model assessed as downregulation of STAT2 expression at 0.5 uM incubated for 24 hrs in presence of CuCl2 by mRNA sequencing analysis; type: functional, cell-based
[23] = Toxicity in male C57BL/6 mouse assessed as change in body weight at 125 mg/kg, po compound administrated as copper complex measured for 10 weeks; type: organism-based; conditions: in vivo, 1680 h
[24] = system: Mus musculus; experiment: Anti-NAFLD activity in high-fat diet-induced male C57BL/6J mouse model assessed as increase in lipid droplets accumulation in liver at 125 mg/kg, po compound administrated as copper complex measured for 10 weeks by H and E staining based analysis; type: functional, organism-based
[25] = Toxicity in male C57BL/6 mouse assessed as lung lesion at 125 mg/kg, po compound administrated as copper complex measured for 10 weeks; type: organism-based; conditions: in vivo, 1680 h
[26] = system: Mus musculus; experiment: Anti-NAFLD activity in high-fat diet-induced male C57BL/6J mouse model assessed as increase in copper level in liver at 125 mg/kg, po compound administrated as copper complex measured for 10 weeks by ICP-MS analysis; type: functional, organism-based
[27] = Toxicity in male C57BL/6 mouse assessed as change in ALT level at 125 mg/kg, po compound administrated as copper complex measured for 10 weeks; type: organism-based; conditions: in vivo, 1680 h
[28] = system: Mus musculus; experiment: Anti-NAFLD activity in high-fat diet-induced male C57BL/6J mouse model assessed as reduction in serum NEFA level at 125 mg/kg, po compound administrated as copper complex measured for 10 weeks; type: functional; set-up: scale not given: the % may be the effect or the level left
[29] = system: Mus musculus; experiment: Anti-NAFLD activity in high-fat diet-induced male C57BL/6J mouse model assessed as reduction in IL-6 level in liver at 125 mg/kg, po compound administrated as copper complex measured for 10 weeks; type: functional, organism-based
[30] = system: Mus musculus; experiment: Anti-NAFLD activity in high-fat diet-induced male C57BL/6J mouse model assessed as decrease in 3-phosphoglycerate at 125 mg/kg, po compound administrated as copper complex measured for 10 weeks by LC-MS/MS analysis; type: functional, organism-based
[31] = system: Mus musculus; experiment: Anti-NAFLD activity in high-fat diet-induced male C57BL/6J mouse model assessed as increase in X5P level in liver at 125 mg/kg, po compound administrated as copper complex measured for 10 weeks by LC-MS/MS analysis; type: functional, organism-based
[32] = system: Mus musculus; experiment: Anti-NAFLD activity in high-fat diet-induced male C57BL/6J mouse model assessed as increase in S7P level in liver at 125 mg/kg, po compound administrated as copper complex measured for 10 weeks by LC-MS/MS analysis; type: functional, organism-based
[33] = system: Mus musculus; experiment: Anti-NAFLD activity in high-fat diet-induced male C57BL/6J mouse model assessed as increase in E4P level in liver at 125 mg/kg, po compound administrated as copper complex measured for 10 weeks by LC-MS/MS analysis; type: functional, organism-based

Stability [1]: Stable | Stability [2]: Stable | Stability [3]: Stable | Activity [4]: 0.199
SMILES: O=c1c(O)c(-c2ccc3cccc(O)c3n2)oc2ccccc12
Activity [5]: Active | Activity [6]: Time-dependent-effect | Activity [7]: Dose-dependent-effect | Activity [8]: Non-toxic | Activity [9]: Active | Activity [10]: Non-toxic | Activity [11]: 61% | Activity [12]: Active | Activity [13]: Active | Activity [14]: Active | Activity [15]: Active | Activity [16]: Active | Activity [17]: Active | Activity [18]: Active | Activity [19]: Active | Activity [20]: Active | Activity [21]: Active | Activity [22]: Active | Activity [23]: Non-toxic | Activity [24]: Active | Activity [25]: Non-toxic | Activity [26]: Active | Activity [27]: Non-toxic | Activity [28]: 52% | Activity [29]: Active | Activity [30]: Active | Activity [31]: Active | Activity [32]: Active | Activity [33]: Active
